Laboratory results as given in US20060229242A1, “Composition comprising a pulmonary surfactant and a pde2 inhibitor” (Altana Phazma AG, priority 2003, published 2006).

Test system: Male Wistar rats
Assay: Rat lung lavage experiment: arterial blood oxygenation after repeated saline lung lavage
Assay type: in vivo
Settings: rat lung lavage model; intratracheal, 1.2 mL, 60 min after lavage; PODPO 100 nM alone, or VENTICUTE 12.5 mgPL/kg with PODPO 100 nM (p<0.05 to p<0.001 versus VENTICUTE alone); up to 150 min
Experimental: (§1) Male Wistar rats were prepared according to Example 5 and lungs were ravaged 5-9 times with NaCl 0.9% (=>PaO2˜50-100 mmHg). After 60 min NaCl 0.9% (open circles), VENTICUTE 12.5 mgPL/kg (filled squares, PL=Phospholipids), PODPO (9-(6-Phenyl-2-oxohex-3-yl)-2-(3,4-dimethoxybenzyl)-purin-6-one) 100 nM (stars), or VENTICUTE 12.5 mgPL/kg in combination with PODPO 100 nM (open squares) was administered intratracheally (administration volume 1.2 mL). Arterial blood oxygenation (PaO2) was determined every 30 min up to 150 min after drug administration (t=210 min). […] Data are shown as mean±SEM. * p<0.05, *** p<0.001 versus VENTICUTE 12.5 mgPL/kg.
as §1, with “rats (220-250 g)” for “rats”, “anaesthetized, catheterised” for “prepared according”, “withdraw arterial blood,” for “Example 5”, “and ventilated with pure oxygen (=>PaO2˜500-550 mmHg). 30 min later” for “and”, “lavaged” for “ravaged”

COc1ccc(Cc2nc3c(ncn3C(CCCc3ccccc3)C(C)=O)c(=O)[nH]2)cc1OC (stereo not shown) [PODPO, 9-(6-Phenyl-2-oxohex-3-yl)-2-(3,4-dimethoxybenzyl)-purin-6-one]
Influence on arterial blood oxygenation (PaO2), in words: no influence on oxygenation
